Source: patent US8815775B2 (priority 2010, dated 2014)
Read-outs that look alike come from different tables or passages of the source.

Assay: log P by HPLC (EEC Directive 79/831 Annex V.A8)
Type: physicochemical
Settings: HPLC with aqueous formic acid/acetonitrile eluents, pH 2.7
Procedure: The log P values were measured according to EEC Directive 79/831 Annex V.A8 by HPLC (high-performance liquid chromatography).
The LC-MS determination within the acidic range is effected at pH 2.7 with 0.1% aqueous formic acid and acetonitrile (contains 0.1% formic acid) as eluents; linear gradient from 10% acetonitrile to 95% acetonitrile.
The calibration is carried out using unbranched alkan-2-ones (having 3 to 16 carbon atoms) with known log P values (determination of the log P values by the retention times using linear interpolation between two successive alkanones). The lambda-maX values were determined in the maxima of the chromatographic signals using the UV spectra from 200 nm to 400 nm.

Compound	chromatographic logP (read-out: log P (pH2.7))	chromatographic logP (HCOOH, read-out: log P (HCOOH))
CCOC(=O)c1csc(C2(F)CCN(C(=O)Cn3nc(C(F)F)cc3C(F)F)CC2)n1 [IXa-1, Ethyl 2-(1-{[3,5-bis(difluoromethyl)-1H-pyrazol-1-yl]acetyl}-4-fluoropiperidin-4-yl)-1,3-thiazole-4-carboxylate]	2.82	
CC(C)(C)OC(=O)N1CCC(O)(c2nc(Br)cs2)CC1 [IV-1, tert-Butyl 4-(4-bromo-1,3-thiazol-2-yl)-4-hydroxypiperidine-1-carboxylate]		2.74
CN(C(=O)c1csc(C2(F)CCN(C(=O)Cn3nc(C(F)F)cc3C(F)F)CC2)n1)C1CCCc2ccccc21 (racemic) [I-a-4, (±)-2-(1-{[3,5-bis(Difluoromethyl)-1H-pyrazol-1-yl]acetyl}-4-fluoropiperidin-4-yl)-N-methyl-N-(1,2,3,4-tetrahydronaphthalen-1-yl)-1,3-thiazole-4-carboxamide]	3.56	
CCOC(=O)c1csc(C2(F)CCN(C(=O)OC(C)(C)C)CC2)n1 [VIa-1, tert-Butyl 4-[4-(ethoxycarbonyl)-1,3-thiazol-2-yl]-4-fluoropiperidine-1-carboxylate]	3.47	
CC(C)(C)OC(=O)N1CCC(F)(c2nc(Br)cs2)CC1 [Va-1, tert-Butyl 4-(4-bromo-1,3-thiazol-2-yl)-4-fluoropiperidine-1-carboxylate]		3.94
O=C(O)c1csc(C2(F)CCN(C(=O)Cn3nc(C(F)F)cc3C(F)F)CC2)n1 [Xa-1, 2-(1-{[3,5-bis(Difluoromethyl)-1H-pyrazol-1-yl]acetyl}-4-fluoropiperidin-4-yl)-1,3-thiazole-4-carboxylic acid]	1.96	
CCOC(=O)c1csc(C2(F)CCNCC2)n1 [VII-1, 4-[4-(Ethoxycarbonyl)-1,3-thiazol-2-yl]-4-fluoropiperidinium chloride]	0.39	
